# Data as given in US20210121414A1, “METHOD FOR PRODUCING A PHARMACEUTICAL COMPOSITION OF POLYMERIC NANOPARTICLES FOR TREATING NEUROPATHIC PAIN CAUSED BY […] COMPRESSION” (UNIVERSIDAD DE SEVILLA, priority 2015, published 2021).
# Key:
# [1] = system: Chronic constriction injury (CCI) model of mononeuropathy, mechanical hyperalgesia; experiment: Paw-pinch test of mechanical hyperalgesia in chronic constriction injury (CCI) rats after single oral administration; format: in vivo, Harlan Sprague-Dawley male albino rats; conditions: CB13 alone
# Description: Harlan Sprague-Dawley male albino rats (230-350 g), provided by the University of Cádiz Animal Experimentation Unit registered under the number ES110120000210, were used. The animals were kept under standard housing conditions (21° C., 12h light-dark cycle, “ad libitum” water and food). All experiments were carried out in accordance with the ethical guidelines for working with experimental animals proposed by the International Association for the Study of Pain […] and by the Federation of Laboratory Animal Science Associations (FELASA).
# Chronic constriction injury, (CCI) was used as a model of mononeuropathy since it is a model that correlates well with the symptoms presented in the patients (spontaneous pain, mechanical and thermal allodynia and hyperalgesia.
# Nociceptive behavior was evaluated in the ipsi- and contralateral paw to the ligation for sciatic nerve […]. The presence of mechanical hyperalgesia was assessed by using the paw-pinch test. Thus, gradual, increasing pressure (starting with 30 g of pressure) was exerted on the rear part of the paw using a motorized device (Analgesia Meter 57215, UGO BASILE). The cut-off pressure was set at 250 g to prevent possible damage to the paw. Two measurements were taken on each paw, 5 minutes apart, and the average value was used for statistical purposes. Mechanical hyperalgesia appeared as the pressure on the paw decreased.
# [2] = cited from earlier work
# [3] = system: established mechanical hyperalgesia; conditions: cited from earlier work
# central nervous system = conditions: rats; cited from earlier work
# [4] = cited from earlier work; remark: listed apart in the source
smiles,measurement,setting,value
"CCCCCOc1ccc(C(=O)c2cccc3ccccc23)c2ccccc12 [CB13, 1-naphthalenyl[4-(pentyloxy)-1-naphthalenyl]methanone]",anti-hyperalgesic effect 9 hours after administration,[1]; 9 hours,continued to be effective but to a lesser extent
same,anti-hyperalgesic effect after 24 hours,[1]; 24 hours,its effectiveness had disappeared
same,aqueous solubility,[2],0.001-0.002 mg/m L
same,antihyperalgesic activity in animal models,[3]; animal models,powerful antihyperalgesic activity
same,effect on established mechanical hyperalgesia,"[3]; oral administration and local injection into the hind paw, pig and rat",reverses the established mechanical hyperalgesia
same,dose with significant CNS effects relative to the oral dose required to reverse hyperalgesia,central nervous system,20 times
same,penetration into the brain,[4]; in vivo,limited penetration into the brain
same,absorption after oral administration,[4]; oral,not completely absorbed
